Source: patent publication US20050014787A1, “5-amidino-2-hydroxybenzenesulfonamide derivatives medicinal compoistions containing the same medicinal use thereof and intermediates in the production thereof” (priority 2001, published 2005)

Key:
[1] = biological target: T1, human activated blood coagulation factor X (Homo sapiens, UniProt P00742); assay: Measurement of inhibitory activity for activated blood coagulation factor X (S-2222 chromogenic substrate); type: biochemical; settings: S-2222 substrate, pH 8.4, 10 minutes at 37° C., absorbance 405 nm
T1 construct: purchased Calbiochem
Procedure: Measurement of inhibitory activity for activated blood coagulation factor X
(§1) 2.5 μL of a dimethylsulfoxide solution of a test compound, 187.5 μL of 100 mM tris-200 mM NaCl buffer (pH 8.4) and 50 μL of 1 mM S-2222 (Daiichi Pure Chemicals) aqueous solution were poured into 96 well microplate. Then 10 μL of 0.6 U/mL human activated blood coagulation factor X (Calbiochem) in gelatin-glycine buffer was added and the mixture was incubated for 10 minutes at 37° C. The reaction was terminated with the addition of 50 μL of 60% acetic acid and absorbance (405 nm) was measured by a microplate reader (SPECTRAmax250, Molecular Devices).
(§2) The group with 2.5 μL of the dimethylsulfoxide solution instead of the test compound solution was defined as the control, and the group with 10 μL of the gelatin-glycine buffer solution instead of human activated blood coagulation factor X was defined as the blank. The concentration of a test compound that inhibited the absorbance of control by 50% (IC50) was obtained, and this value was used as the index of inhibitory activity for activated blood coagulation factor X. Results were shown as Table 1.

human thrombin = biological target: T2, human thrombin (Homo sapiens, UniProt P00734); assay: Measurement of inhibitory activity for thrombin (S-2238 chromogenic substrate); type: biochemical; settings: S-2238 substrate, pH 8.4, 10 minutes at 37° C., absorbance 405 nm
T2 construct: human thrombin (Sigma Chemical Company); purchased Sigma Chemical Company
Procedure: Measurement of inhibitory activity for thrombin
as §1, with “S-2238” for “S-2222”, “2.0” for “0.6”, “thrombin (Sigma Chemical Company)” for “activated blood coagulation factor X (Calbiochem)”
as §2, with “thrombin” for “activated blood coagulation factor X”, “thrombin.” for “activated blood coagulation factor X. Results were shown as Table 1.”

T1 sequence (P00742 235-488 limits assumed): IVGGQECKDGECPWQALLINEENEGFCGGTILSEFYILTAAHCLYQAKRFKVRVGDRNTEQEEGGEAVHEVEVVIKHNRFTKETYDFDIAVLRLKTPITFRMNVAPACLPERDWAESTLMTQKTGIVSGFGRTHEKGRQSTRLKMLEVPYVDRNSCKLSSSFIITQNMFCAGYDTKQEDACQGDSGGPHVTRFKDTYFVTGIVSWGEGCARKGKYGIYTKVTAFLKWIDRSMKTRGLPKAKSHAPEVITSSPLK
T1 sequence (P00742 41-179 partner limits assumed): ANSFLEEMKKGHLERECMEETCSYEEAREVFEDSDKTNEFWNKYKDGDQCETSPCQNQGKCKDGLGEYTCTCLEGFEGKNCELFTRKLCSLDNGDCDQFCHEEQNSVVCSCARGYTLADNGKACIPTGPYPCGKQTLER

| IC50 [1] | IC50 (human thrombin) | Structure (SMILES) |
| --- | --- | --- |
| 160 nM | 26000 nM | CC(C)c1ccc(CCN(C)S(=O)(=O)c2cc(C(=N)N)ccc2O)cc1 [Compound 17, 5-Carbamimidoyl-2-hydroxy-N-[2-(4-isopropylphenyl)ethyl]-N-methylbenzenesulfonamide] |
| 51 nM | 27000 nM | CC(C)c1ccc(CCN(CC(=O)N2CCOCC2)S(=O)(=O)c2cc(C(=N)N)ccc2O)cc1 [Compound 14, 5-Carbamimidoyl-2-hydroxy-N-[2-(4-isopropylphenyl)ethyl]-N-(2-morpholin-4-yl-2-oxoethyl)benzenesulfonamide] |
| 3.8 nM |  | N=C(N)c1ccc(O)c(S(=O)(=O)NCCc2ccc(-c3ccccc3S(N)(=O)=O)cc2)c1 [Compound 15, 5-Carbamimidoyl-2-hydroxy-N-[2-(2′-sulfamoylbiphenyl-4-yl)-ethyl]benzenesulfnamide] |
